Experimental data: patent US20190284286A1, “Modulation of Type I Interferons to Reactivate HIV-1 Reservoir and Enhance HIV-1 Treatment” (The University of North Carolina at Chapel Hill, priority 2016, published 2019)

Experiments:
CD4 T cells = assay: Ex vivo culture of splenocytes from HIV-1 persistently infected humanized mice; format: cell-based; conditions: for number of live CD4 T cells (CD4 T cell depletion) / active caspase-3 / apoptosis of CD4 T cells: 10 days culture, Z-DEVD-FMK 10 μM; for number of live CD4 T cells (CD4 T cell depletion): Ac-YVAD-CMK 50 μM
Experimental: Mice were sacrificed at 10 wpi. […] At day 10, the cells were counted and used for analysis. (B) HIV-1 RNA levels in culture supernatant. (C-D) Representative dot plots (C) and summarized data (D) show percentages of CD4 T cells with active caspase-3. (E) Number of live CD4 T cells in each group. (F-I) Splenocytes from mock (n=2) or HIV-1 infected (n=4) humanized mice were cultured with IL-2 in vitro in the presence of DMSO or caspase-3 inhibitor Z-DEVD-FMK or caspase-1 inhibitor Ac-YVAD-CMK for 10 days. At day 10, the cells were counted and used for staining. (F-G) Representative dot plots (F) and summarized data (G) show percentages of active caspase-3^+ CD4 T cells. (H-I) Number of live CD4 T cells in each group. Data are one representative of 2 independent experiments with mean values±s.e.m.). *P<0.05, **P<0.01 by unpaired, two-tailed Student's t-test to compare differences between each two groups.
For surface staining, single cell suspensions prepared from peripheral blood, spleen, or mesenteric lymph nodes of humanized mice were stained with surface markers and analyzed on a CyAn ADP flow cytometer (Dako). For intracellular staining, cells were first stained with surface markers, and then fixed and permeabilized with cytofix/cytoperm buffer (BD Bioscience), followed by intracellular staining. PE-conjugated anti-human active caspase-3 (C92-605) was used to detect intracellular activation of caspase-3. Fluorescent labeled inhibitors of caspases-1 probe assay (FLICA 660 Caspase-1 Assay Kit, ImmunoChemistry Technologies) were performed to determine intracellular activation of caspases-1. Data were analyzed using Summit4.3 software (Dako).
Media were half-changed every 2-3 days. At day 10, the cells were counted and used for staining.

HIV-1 = conditions: long-term IFN-α during and after ART; cited from earlier work
[1] = α-IFNAR1 10 μg/ml, IFN-α 200 u/ml

Row | Compound | number of live CD4 T cells (CD4 T cell depletion) (CD4 T cells) | HIV-1 replication (HIV-1 RNA in culture supernatant) (CD4 T cells; 10 days culture with IL-2, α-IFNAR1 10 μg/ml, IFN-α 200 u/ml) | active caspase-3 / apoptosis of CD4 T cells (CD4 T cells; [1]) | patients with suppression of HIV-1 rebound (HIV-1)
1 | CC(=O)N[C@@H](Cc1ccc(O)cc1)C(=O)N[C@H](C(=O)N[C@@H](C)C(=O)N[C@@H](CC(=O)O)C(=O)CCl)C(C)C [Ac-YVAD-CMK, reference compound] | did not prevent CD4 T cell depletion | – | – | –
2 | IFN-α | accelerated CD4 T cell depletion | inhibited HIV-1 replication | further increased the level of active caspase-3 | ~40%
3 | COC(=O)CC[C@H](NC(=O)[C@H](CC(=O)OC)NC(=O)OCc1ccccc1)C(=O)N[C@H](C(=O)N[C@@H](CC(=O)OC)C(=O)CF)C(C)C [Z-DEVD-FMK, reference compound] | rescued CD4 T cell number | – | reduced HIV-1 induced CD4 T cell apoptosis | –
